Patent US8288431B2, “Substituted spiroindolinones” (Hoffmann-La Roche Inc., priority 2010, dated 2012)

The molecules below were run against interaction between p53 and MDM2 proteins (recombinant GST-tagged MDM2, biotinylated p53 peptide) (Homo sapiens, UniProt Q00987) (assay: HTRF (homogeneous time-resolved fluorescence) assay of p53-MDM2 interaction). Conditions: bsa 0.02%.
Format: binding
Method: The ability of the compounds to inhibit the interaction between p53 and MDM2 proteins was measured by an HTRF (homogeneous time-resolved fluorescence) assay in which recombinant GST-tagged MDM2 binds to a peptide that resembles the MDM2-interacting region of p53 (Lane et al.). Binding of GST-MDM2 protein and p53-peptide (biotinylated on its N-terminal end) is registered by the FRET (fluorescence resonance energy transfer) between Europium (Eu)-labeled anti-GST antibody and streptavidin-conjugated Allophycocyanin (APC).
Add 10 uL diluted compounds (1:5 dilution in reaction buffer) to each well, mix by shaking. Add 20 uL biotinylated p53 peptide (180 nM working solution) in reaction buffer to each well and mix on shaker. Incubate at 37° C. for 1 h. Add 20 uL streptavidin-APC and Eu-anti-GST antibody mixture (6 nM Eu-anti-GST and 60 nM streptavidin-APC working solution) in TBS buffer with 0.2% BSA, shake at room temperature for 30 minutes and read using a TRF-capable plate reader at
665 and 615 nm (Victor 5, Perkin ElmerWallac). If not specified, the reagents were purchased from Sigma Chemical Co.

interaction between p53 and MDM2 proteins (recombinant GST-tagged MDM2, biotinylated p53 peptide), sequence (Q00987 whole entry): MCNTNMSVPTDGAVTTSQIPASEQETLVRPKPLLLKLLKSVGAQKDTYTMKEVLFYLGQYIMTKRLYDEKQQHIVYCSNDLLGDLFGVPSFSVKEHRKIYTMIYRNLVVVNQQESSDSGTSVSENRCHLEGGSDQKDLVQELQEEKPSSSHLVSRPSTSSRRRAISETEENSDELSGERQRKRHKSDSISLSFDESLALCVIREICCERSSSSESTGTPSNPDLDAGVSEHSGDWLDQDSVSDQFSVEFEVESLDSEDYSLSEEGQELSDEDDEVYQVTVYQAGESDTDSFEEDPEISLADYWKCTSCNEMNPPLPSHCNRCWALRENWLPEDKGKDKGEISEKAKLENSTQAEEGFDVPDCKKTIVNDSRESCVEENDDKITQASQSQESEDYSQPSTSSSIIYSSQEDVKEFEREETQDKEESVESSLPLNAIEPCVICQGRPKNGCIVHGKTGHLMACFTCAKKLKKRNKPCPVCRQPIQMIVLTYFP

| Compound | IC50 |
| --- | --- |
| CC(C)(CO)C[C@@H]1CN(C(=O)NCC[C@H](O)CO)[C@H](c2cccc(Cl)c2F)[C@]12C(=O)Nc1cc(Cl)ccc12 (mixture of isomers) [Example 33, rac-(2′S,3′S,4′S)-6-chloro-2′-(3-chloro-2-fluoro-phenyl)-4′-(3-hydroxy-2,2-dimethyl-propyl)-2-oxo-1,2-dihydro-spiro[indole-3,3′-pyrrolidine]-1′-carboxylic acid ((S)-3,4-dihydroxy-butyl)-amide] | 725 nM |
| CC(C)(C)C[C@@H]1CN[C@H](c2cccc(Cl)c2F)[C@]12C(=O)Nc1cc(Cl)ccc12 (racemic) [Example 6, rac-(2′S,3′S,4′S)-6-chloro-2′-(3-chloro-2-fluoro-phenyl)-4′-(2,2-dimethyl-propyl)-1H-spiro[indole-3,3′-pyrrolidin]-2-one] | 773 nM |
| COC(=O)c1ccc(NC(=O)N2C[C@@H](CC(C)(C)C)[C@@]3(C(=O)Nc4cc(Cl)ccc43)[C@H]2c2cccc(Cl)c2F)cc1 (racemic) [Example 12, rac-4-{[(2′S,3′S,4′S)-6-chloro-2′-(3-chloro-2-fluoro-phenyl)-4′-(2,2-dimethyl-propyl)-2-oxo-1,2-dihydro-spiro[indole-3,3′-pyrrolidin]e-1′-carbonyl]-amino}-benzoic acid methyl ester] | 581 nM |
| CC(C)(C)C[C@@H]1CN(C(=O)OCc2ccc(C(=O)O)cc2)[C@H](c2cccc(Cl)c2F)[C@]12C(=O)Nc1cc(Cl)ccc12 (racemic) [Example 49, rac-(2′S,3′S,4′S)-6-chloro-2′-(3-chloro-2-fluoro-phenyl)-4′-(2,2-dimethyl-propyl)-2-oxo-1,2-dihydro-spiro[indole-3,3′-pyrrolidine]-1′-carboxylic acid 4-carboxy-benzyl ester] | 178 nM |
| CC(C)(C)C[C@@H]1CN(C(=O)NC2CCN(S(C)(=O)=O)CC2)[C@H](c2cccc(Cl)c2F)[C@]12C(=O)Nc1cc(Cl)ccc12 [Example 28, chiral (2′S,3′S,4′S)-6-chloro-2′-(3-chloro-2-fluoro-phenyl)-4′-(2,2-dimethyl-propyl)-2-oxo-1,2-dihydro-spiro[indole-3,3′-pyrrolidine]-1′-carboxylic acid (1-methanesulfonyl-piperidin-4-yl)-amide] | 133 nM |
